Results reported in PubChem BioAssay (NCI).
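Values below derive from 48-hour exposures of cells grown in 96-well plates, with endpoints linearly interpolated between the two concentrations bracketing the appropriate inhibition level. GI50 = concentration required for 50% inhibition of growth. TGI marks complete inhibition of growth.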

How the values were obtained:
Experiment in all cases: NCI-60 cell line screen, 48 h
ACHN renal = system: ACHN renal
SNB-75 CNS = system: SNB-75 CNS
M14 melanoma = system: M14 melanoma
DU-145 prostate = system: DU-145 prostate
SNB-19 CNS = system: SNB-19 CNS
CCRF-CEM leukemia = system: CCRF-CEM leukemia
HOP-62 NSCLC = system: HOP-62 NSCLC
SK-MEL-5 melanoma = system: SK-MEL-5 melanoma
K-562 leukemia = system: K-562 leukemia
786-0 renal = system: 786-0 renal
OVCAR-3 ovarian = system: OVCAR-3 ovarian
HL-60(TB) leukemia = system: HL-60(TB) leukemia
TK-10 renal = system: TK-10 renal
UACC-257 melanoma = system: UACC-257 melanoma
HCC-2998 colon = system: HCC-2998 colon
RXF 393 renal = system: RXF 393 renal
OVCAR-5 ovarian = system: OVCAR-5 ovarian
UACC-62 melanoma = system: UACC-62 melanoma
BT-549 breast = system: BT-549 breast
A498 renal = system: A498 renal
MOLT-4 leukemia = system: MOLT-4 leukemia
SK-OV-3 ovarian = system: SK-OV-3 ovarian
MALME-3M melanoma = system: MALME-3M melanoma
SK-MEL-28 melanoma = system: SK-MEL-28 melanoma
U251 CNS = system: U251 CNS
A549 NSCLC = system: A549 NSCLC

Clc1ccc(-c2c3ccc(=[N+]4CCCCC4)cc-3oc3cc(N4CCCCC4)ccc23)cc1
GI50 (ACHN renal): 90.9 nM
TGI (ACHN renal): 229 nM
GI50 (SNB-75 CNS): 49.4 nM
TGI (SNB-75 CNS): 333 nM
GI50 (M14 melanoma): 69.6 nM
TGI (M14 melanoma): 209 nM
GI50 (DU-145 prostate): 63.2 nM
TGI (DU-145 prostate): 214 nM
GI50 (SNB-19 CNS): 133 nM
TGI (SNB-19 CNS): 313 nM
GI50 (CCRF-CEM leukemia): 153 nM
TGI (CCRF-CEM leukemia): 1970 nM
GI50 (HOP-62 NSCLC): 63.5 nM
TGI (HOP-62 NSCLC): 202 nM
GI50 (SK-MEL-5 melanoma): 156 nM
TGI (SK-MEL-5 melanoma): 291 nM
GI50 (K-562 leukemia): 153 nM
TGI (K-562 leukemia): 779 nM
GI50 (786-0 renal): 103 nM
TGI (786-0 renal): 226 nM
GI50 (OVCAR-3 ovarian): 132 nM
TGI (OVCAR-3 ovarian): 274 nM
GI50 (HL-60(TB) leukemia): 94.2 nM
TGI (HL-60(TB) leukemia): 471 nM
GI50 (TK-10 renal): 129 nM
TGI (TK-10 renal): 345 nM
GI50 (UACC-257 melanoma): 130 nM
TGI (UACC-257 melanoma): 304 nM
GI50 (HCC-2998 colon): 120 nM
TGI (HCC-2998 colon): 248 nM
GI50 (RXF 393 renal): 129 nM
TGI (RXF 393 renal): 279 nM
GI50 (OVCAR-5 ovarian): 145 nM
TGI (OVCAR-5 ovarian): 323 nM
GI50 (UACC-62 melanoma): 180 nM
TGI (UACC-62 melanoma): 452 nM
GI50 (BT-549 breast): 154 nM
TGI (BT-549 breast): 310 nM
GI50 (A498 renal): 35 nM
TGI (A498 renal): 150 nM
GI50 (MOLT-4 leukemia): 159 nM
TGI (MOLT-4 leukemia): 741 nM
GI50 (SK-OV-3 ovarian): 204 nM
TGI (SK-OV-3 ovarian): 715 nM

CC1(C)COC(c2ccc(CC(Cc3ccc(C4(C(C)(C)C)OCC(C)(C)CO4)cc3)C(=O)O)cc2)(C(C)(C)C)OC1
GI50 (ACHN renal): 2800 nM
TGI (ACHN renal): > 100000 nM
GI50 (M14 melanoma): > 100000 nM
TGI (M14 melanoma): > 100000 nM
GI50 (SNB-19 CNS): 4140 nM
TGI (SNB-19 CNS): > 100000 nM
GI50 (RXF 393 renal): 2860 nM
TGI (RXF 393 renal): > 100000 nM
GI50 (MALME-3M melanoma): > 100000 nM
TGI (MALME-3M melanoma): > 100000 nM
GI50 (SK-MEL-28 melanoma): > 100000 nM
TGI (SK-MEL-28 melanoma): > 100000 nM
GI50 (U251 CNS): 3030 nM
TGI (U251 CNS): > 100000 nM
GI50 (A549 NSCLC): 2060 nM
TGI (A549 NSCLC): > 100000 nM
